The term IC50 denotes the concentration that gives 50% inhibition.

For data set [1], the target named is T1, hCAR1 (Homo sapiens, UniProt Q14994).
T1 construct: expressed in transfected cells; host or cells: HepG2 (transient transfection)
T1 sequence (Q14994 1-348 isoform Q14994-2): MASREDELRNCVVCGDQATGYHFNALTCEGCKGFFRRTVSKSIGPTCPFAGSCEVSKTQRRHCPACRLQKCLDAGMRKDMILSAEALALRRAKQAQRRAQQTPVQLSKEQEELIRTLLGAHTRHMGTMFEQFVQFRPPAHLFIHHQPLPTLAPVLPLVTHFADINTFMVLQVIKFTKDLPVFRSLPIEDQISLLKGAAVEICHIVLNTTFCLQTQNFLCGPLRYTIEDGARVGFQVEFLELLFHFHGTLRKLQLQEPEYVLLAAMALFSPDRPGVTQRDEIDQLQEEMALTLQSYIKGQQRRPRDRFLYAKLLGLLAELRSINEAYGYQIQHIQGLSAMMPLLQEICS
Briefly: Cell-based inverse agonist assay (CYP2B6-luciferase reporter in HepG2 cells transfected with hCAR1). The settings on record: 24 h treatment; read-out: IC50, inhibition of CAR-mediated CYP2B6-luciferase activity. The method, then:
HepG2 cells grown in flasks were transfected with Flag-hCAR1 and CYP2B6-luciferase reporter at a 1:3 ratio with Fugene HD (Promega) and incubated for 24 h. Cells were trypsinized and plated in 384-well plates (CulturPlate-384, PerkinElmer) at 5000 cells/well for the primary or secondary screening assays. Cells were treated with chemicals transferred by using a pintool 24 h prior to measuring reporter luciferase activity with SteadyLite firefly luciferase reagent and an EnVision plate reader (PerkinElmer). […] PXR activity was measured in HepG2 cells stably transfected with hPXR and CYP3A4-luciferase reporter (previously described as PXR Clonel cells, see Li, G., et al. (2012) Tox. Appl. Pharm. 258, 268-274; and Lin, W., et al. (2008) J. Biol. Chem. 283, 30650-30657). […] The luminescence signal was detected by using an Envision plate reader (PerkinElmer) and used to calculate the percentage of PXR activation. […] A flowchart of our screening strategy is illustrated in FIG. 1A. HepG2 cells were transiently transfected with pcDNA-hCAR1 and CYP2B6-luciferase plasmids and treated with varying concentrations of the test compounds in 384-well plates for 24 h, and CAR-mediated luciferase activity was measured. Twenty-five hits, defined as those displaying dose-responsive inhibitory effect on the constitutively active hCAR1, were selected and tested in various secondary screening assays. CINPA1 (FIG. 1B) was selected based on its potent inhibitory effect on hCAR1 and lack of detectable agonistic activity against PXR.
In general terms: Reporter assays use an easily measured gene product as a stand-in for the process of interest.

Data set [2] has as its target T2, hPXR (Homo sapiens, UniProt O75469).
T2 construct: expressed in transfected cells
T2 sequence (O75469 1-434): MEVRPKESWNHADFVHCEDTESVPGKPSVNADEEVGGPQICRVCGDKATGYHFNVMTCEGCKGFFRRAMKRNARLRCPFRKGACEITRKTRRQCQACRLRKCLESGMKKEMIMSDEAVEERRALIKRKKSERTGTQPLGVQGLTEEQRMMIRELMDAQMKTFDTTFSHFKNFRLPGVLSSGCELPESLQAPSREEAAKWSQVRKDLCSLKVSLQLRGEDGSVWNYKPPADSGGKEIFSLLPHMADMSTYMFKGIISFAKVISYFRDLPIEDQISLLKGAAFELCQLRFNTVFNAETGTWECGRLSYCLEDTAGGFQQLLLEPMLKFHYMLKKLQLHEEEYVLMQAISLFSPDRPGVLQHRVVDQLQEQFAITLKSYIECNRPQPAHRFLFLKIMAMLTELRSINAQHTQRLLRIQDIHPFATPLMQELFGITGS
The data set is described as follows: PXR luciferase assay (HepG2-PXR Clone 1, CYP3A4-luciferase reporter). Type of data set: cell-based. As for the experimental part: Luciferase activity was measured 24 h after treatment by using SteadyLite™ reagent. […] GraphPad Prism was used to fit the data into a dose-response equation to derive IC50 values. […] The percentage of PXR activation was calculated by setting that of DMSO-treated cells (negative control) to 0%, and that of 5 μM rifampicin-treated cells (positive control) to 100%. HepG2 cells stably expressing hPXR and CYP3A4-luciferase reporter (PXR Clone 1) were treated with indicated compounds for 24 h. Luciferase activity was measured 24 h after treatment by using SteadyLite reagent. The percentage of PXR activation was calculated by setting that of DMSO-treated cells (negative control) to 0%, and that of 5 μM rifampicin-treated cells (positive control) to 100%.
Briefly, HepG2 cells were transiently transfected with plasmids expressing hCAR1, CYP3A4-luc reporter and control plasmid pTK-RL. […] Dual luciferase activity was measured 24 h after treatment using Dual-Glo® luciferase reagent. Renilla luciferase was used to normalize firefly luciferase values and % Luciferase activity was calculated by setting DMSO to 100%. p<0.001, when comparing DMSO to all treatments except 5 μM rifampicin. […] Briefly, HepG2-PXR Clone 1 cells were treated with CINPA1 in a dose-responsive format (40 μM to 2 nM, 1-to-2 dilutions for 10 concentrations) in the presence or absence of 5 μM rifampicin (Rif) for 24 h before luciferase assay using SteadyLite™. % PXR activity was calculated by setting DMSO (negative. control) treated cells to 0% and 5 μM rifampicin (positive. control) treated cells to 100%. GraphPad Prism was used to fit the data into a dose-response stimulation equation to derive IC50 values. […] Briefly, U2OS cells were transiently transfected with plasmids expressing hCAR1, CYP2B6-luc reporter and control plasmid pTK-RL. […] Dual luciferase activity was measured 24 h after treatment. Renilla luciferase was used to normalize firefly luciferase values and % Luciferase activity was calculated by setting DMSO to 100%. *, p<0.0001 comparing CITCO+CINPA1 to CITCO treated cells. […]

For the compound `CCOC(=O)Nc1ccc2c(c1)N(C(=O)CN(CC)CC)c1ccccc1CC2` [CINPA1], the concentration for half-maximal inhibition (IC50) in data set [1] was determined as 0.072 µM; in data set [2] (in the presence of 5 μM rifampicin, read-out: IC50, antagonist of PXR), 6.6 µM. Moreover, in data set [2] (18 μM CINPA1 with 5 μM rifampicin, 24 h), the “inhibition of PXR-mediated gene expression” value was “weakly inhibited PXR-mediated gene expression”. Also, the “agonistic effect on PXR-regulated gene expression” value in data set [2] (40 μM) is given as “did not exhibit any agonistic effect”.
